This note sets out measurements from US20240252506A1 (Hoffmann-La Roche Inc., priority 2021, published 2024).

≈ marks a conversion by molar mass, not a printed value.

The test concerns Escherichia coli ATCC 25922. The test is described as follows: Minimal Inhibitory Concentration (MIC) determination, broth microdilution (CLSI M07-A10). Format: cell-based. The conditions noted are these: Escherichia coli, ATCC25922, strain Escherichia coli ATCC 25922, 18-24 hours at 35±2° C., lowest concentration for complete growth inhibition (no visible growth), read-out: Escherichia coli growth inhibition MIC. The procedure, abridged: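 Broth microdilution per CLSI M07-A10; compounds in 2-fold serial dilutions; inoculum from 0.5 McFarland suspension diluted 1:200 in broth. Incubated 18-24 h at 35±2° C in ambient air; MIC (μg/mL) taken as lowest concentration giving no visible growth.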
On the technique in general: Dilution methods test growth across graded concentrations, often in twofold steps.
Consider `CN(C)CC(=O)N(C)CCn1nc2c(F)c3c(c(F)c2n1)CC(CN1CCC2(CC1)CN(c1cnc4c(n1)NC(=O)CO4)C(=O)O2)C3` [Example 155, N-[2-[4,8-difluoro-6-[[2-oxo-3-(3-oxo-4H-pyrazino[2,3-b][1,4]oxazin-6-yl)-1-oxa-3,8-diazaspiro[4.5]decan-8-yl]methyl]-6,7-dihydro-5H-cyclopenta[f]benzotriazol-2-yl]ethyl]-2-(dimethylamino)-N-methyl-acetamide], for which the MIC was determined as 1 µg/mL (≈ 1.53 µM). For `O=C1COc2ncc(N3CC4(CCN(CC5Cc6c(c(F)c7nn(CCNC(=O)[C@H]8CCCN8)nc7c6F)C5)CC4)OC3=O)nc2N1` [Example 158, (2R)—N-[2-[4,8-Difluoro-6-[[2-oxo-3-(3-oxo-4H-pyrazino[2,3-b][1,4]oxazin-6-yl)-1-oxa-3,8-diazaspiro[4.5]decan-8-yl]methyl]-6,7-dihydro-5H-cyclopenta[f]benzotriazol-2-yl]ethyl]pyrrolidine-2-carboxamide] the value was 0.25 µg/mL (≈ 0.383 µM).

In the case of `CNCC(=O)NCCn1nc2c(F)c3c(c(F)c2n1)CC(CN1CCC2(CC1)CN(c1cnc4c(n1)NC(=O)CO4)C(=O)O2)C3` [Example 159, N-[2-[4,8-difluoro-6-[[2-oxo-3-(3-oxo-4H-pyrazino[2,3-b][1,4]oxazin-6-yl)-1-oxa-3,8-diazaspiro[4.5]decan-8-yl]methyl]-6,7-dihydro-5H-cyclopenta[f]benzotriazol-2-yl]ethyl]-2-(methylamino)acetamide], the MIC turned out to be 0.25 µg/mL (≈ 0.399 µM). Consider `CNCC(=O)NCc1nc2cc3c(c(F)c2[nH]1)CC(CN1CCC2(CC1)CN(c1cnc4c(n1)NC(=O)CO4)C(=O)O2)C3.O=C(O)C(F)(F)F` (centres unmarked) [Example 160, N-[[8-fluoro-6-[[2-oxo-3-(3-oxo-4H-pyrazino[2,3-b][1,4]oxazin-6-yl)-1-oxa-3,8-diazaspiro[4.5]decan-8-yl]methyl]-1,5,6,7-tetrahydrocyclopenta[f]benzimidazol-2-yl]methyl]-2-(methylamino)acetamide; 2,2,2-trifluoroacetic acid], for which the MIC is 0.5 µg/mL. The same measure for `O=C(O)C(F)(F)F.O=C1COc2ncc(N3CC4(CCN(CC5Cc6cc7nc(CNC(=O)[C@H]8CCCN8)[nH]c7c(F)c6C5)CC4)OC3=O)nc2N1` (stereo partly drawn) [Example 161, (2R)-N-[[8-fluoro-6-[[2-oxo-3-(3-oxo-4H-pyrazino[2,3-b][1,4]oxazin-6-yl)-1-oxa-3,8-diazaspiro[4.5]decan-8-yl]methyl]-1,5,6,7-tetrahydrocyclopenta[f]benzimidazol-2-yl]methyl]pyrrolidine-2-carboxamide; 2,2,2-trifluoroacetic acid]: 0.25 µg/mL; for `O=C1COc2ncc(N3CC4(CCN(CC5Cc6c(c(F)c7c(nnn7CCNC(=O)[C@H]7CCCN7)c6F)C5)CC4)OC3=O)nc2N1` (stereo partly drawn) [Example 162, (2R)-N-[2-[4,8-difluoro-6-[[2-oxo-3-(3-oxo-4H-pyrazino[2,3-b][1,4]oxazin-6-yl)-1-oxa-3,8-diazaspiro[4.5]decan-8-yl]methyl]-6,7-dihydro-5H-cyclopenta[f]benzotriazol-1-yl]ethyl]pyrrolidine-2-carboxamide]: 1 µg/mL (≈ 1.53 µM); for `O=C1COc2ncc(N3CC4(CCN(CC5Cc6c(c(F)c7nn(CCNC(=O)[C@H]8C[C@H](O)CN8)nc7c6F)C5)CC4)OC3=O)nc2N1` [Example 163, (2R,4S)-N-[2-[4,8-difluoro-6-[[2-oxo-3-(3-oxo-4H-pyrazino[2,3-b][1,4]oxazin-6-yl)-1-oxa-3,8-diazaspiro[4.5]decan-8-yl]methyl]-6,7-dihydro-5H-cyclopenta[f]benzotriazol-2-yl]ethyl]-4-hydroxy-pyrrolidine-2-carboxamide]: 0.5 µg/mL (≈ 0.748 µM). On to `O=C1COc2ncc(N3CC4(CCN(CC5Cc6c(c(F)c7c(nnn7CCNC(=O)[C@H]7C[C@H](O)CN7)c6F)C5)CC4)OC3=O)nc2N1` (stereo partly drawn) [Example 164, (2R,4S)-N-[2-[4,8-difluoro-6-[[2-oxo-3-(3-oxo-4H-pyrazino[2,3-b][1,4]oxazin-6-yl)-1-oxa-3,8-diazaspiro[4.5]decan-8-yl]methyl]-6,7-dihydro-5H-cyclopenta[f]benzotriazol-1-yl]ethyl]-4-hydroxy-pyrrolidine-2-carboxamide], for which the MIC was 2 µg/mL (≈ 2.99 µM).

In general, MIC refers to the smallest concentration in the dilution series that meets the test's criterion for growth inhibition.
